6 compounds from patent US9469615B2, “Quinoxalines and AZA-quinoxalines as CRTH2 receptor modulators” (Merck Sharp & Dohme Corp., priority 2010, dated 2016) can be followed below.

The target of the experiment is T1, hCRTH2 (Homo sapiens, UniProt Q9Y5Y4).
T1 construct: expressed in transfected cells; host or cells: HEK (human embryonic kidney) cells expressing hCRTH2; membrane preparation
T1 sequence (Q9Y5Y4 1-395): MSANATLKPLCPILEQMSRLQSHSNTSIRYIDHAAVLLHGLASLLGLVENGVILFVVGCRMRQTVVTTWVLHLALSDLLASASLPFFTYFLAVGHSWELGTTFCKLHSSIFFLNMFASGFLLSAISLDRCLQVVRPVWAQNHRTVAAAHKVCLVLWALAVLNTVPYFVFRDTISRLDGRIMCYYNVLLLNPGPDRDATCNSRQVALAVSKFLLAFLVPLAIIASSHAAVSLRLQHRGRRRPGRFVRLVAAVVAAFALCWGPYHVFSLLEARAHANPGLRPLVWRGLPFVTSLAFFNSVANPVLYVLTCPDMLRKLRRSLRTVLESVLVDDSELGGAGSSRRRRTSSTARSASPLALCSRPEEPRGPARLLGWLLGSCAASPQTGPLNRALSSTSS
The experiment in a line: Radioligand binding assay ([3H]PGD2 competition, HEK-hCRTH2 membranes). The following applies: [3H]PGD2 competition, Table B. The procedure, abridged:
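Using membranes of an HEK line stably carrying hCRTH2, ligands were tested against [3H]PGD2 (3.0 nM) in pH 7.4 Tris buffer containing 2 mM MnCl2 and 1 mM EDTA. After one hour at room temperature, filters were washed cold and counted.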

Compound `CC1(C)CC[C@@H](NC(=O)c2ccc3nc(-c4ccccc4)c(CCCCC(=O)O)nc3c2)c2ccccc21` [compound 722, (R)-5-(7-((4,4-dimethyl-1,2,3,4-tetrahydronaphthalen-1-yl)carbamoyl)-3-phenylquinoxalin-2-yl)pentanoic acid] showed a Ki of 2.1 to 20 nM.
In the case of `O=C(O)CCCc1nc2cc(C(=O)N[C@@H]3CCCc4cc(F)ccc43)ccc2nc1-c1ccccc1` [compound 723, (R)-4-(7-((6-fluoro-1,2,3,4-tetrahydronaphthalen-1-yl)carbamoyl)-3-phenylquinoxalin-2-yl)butanoic acid], the Ki was 20.1 to 200 nM.
The value for `O=C(O)CCCc1nc2cc(C(=O)N[C@@H]3CCCc4ccccc43)ccc2nc1-c1ccccc1` [compound 724, (R)-4-(3-phenyl-7-((1,2,3,4-tetrahydronaphthalen-l-yl)carbamoyl)quinoxalin-2-yl)butanoic acid] was 201 to 700 nM; that for `O=C(O)CCCc1nc2cc(C(=O)N[C@@H]3CCOc4cc(F)ccc43)ccc2nc1-c1ccccc1` [compound 725, (R)-4-(7-((7-fluorochroman-4-yl)carbamoyl)-3-phenylquinoxalin-2-yl)butanoic acid] was 201 to 700 nM.
The compound `C[C@@H](NC(=O)c1cc2nc(CCCCC(=O)O)c(-c3ccccc3)nc2cc1F)c1ccc(F)cc1` [compound 727, (R)-5-(6-fluoro-7-((1-(4-fluorophenyl)ethyl)carbamoyl)-3-phenylquinoxalin-2-yl)pentanoic acid] displayed a Ki of 2.1 to 20 nM.
The value for `O=C(O)CCCCc1nc2cc(C(=O)N[C@@H]3CCOc4ccccc43)c(F)cc2nc1-c1ccccc1` [compound 728, (R)-5-(7-(chroman-4-ylcarbamoyl)-6-fluoro-3-phenylquinoxalin-2-yl)pentanoic acid] was 2.1 to 20 nM.

The Ki is the dissociation constant of the complex between target and ligand, obtained from inhibition or displacement.
